We go through one compound from article PMC12435834, “The GLYT1 inhibitor bitopertin mitigates erythroid PPIX production and liver disease in erythroid protoporphyria” (The Journal of Clinical Investigation, 2025).

Molecules are shown by their SMILES.

Assay [1] deals with T1, GLYT1 (Mus musculus, UniProt P28571).
T1 construct: gene Slc6a9
T1 sequence (P28571 1-692): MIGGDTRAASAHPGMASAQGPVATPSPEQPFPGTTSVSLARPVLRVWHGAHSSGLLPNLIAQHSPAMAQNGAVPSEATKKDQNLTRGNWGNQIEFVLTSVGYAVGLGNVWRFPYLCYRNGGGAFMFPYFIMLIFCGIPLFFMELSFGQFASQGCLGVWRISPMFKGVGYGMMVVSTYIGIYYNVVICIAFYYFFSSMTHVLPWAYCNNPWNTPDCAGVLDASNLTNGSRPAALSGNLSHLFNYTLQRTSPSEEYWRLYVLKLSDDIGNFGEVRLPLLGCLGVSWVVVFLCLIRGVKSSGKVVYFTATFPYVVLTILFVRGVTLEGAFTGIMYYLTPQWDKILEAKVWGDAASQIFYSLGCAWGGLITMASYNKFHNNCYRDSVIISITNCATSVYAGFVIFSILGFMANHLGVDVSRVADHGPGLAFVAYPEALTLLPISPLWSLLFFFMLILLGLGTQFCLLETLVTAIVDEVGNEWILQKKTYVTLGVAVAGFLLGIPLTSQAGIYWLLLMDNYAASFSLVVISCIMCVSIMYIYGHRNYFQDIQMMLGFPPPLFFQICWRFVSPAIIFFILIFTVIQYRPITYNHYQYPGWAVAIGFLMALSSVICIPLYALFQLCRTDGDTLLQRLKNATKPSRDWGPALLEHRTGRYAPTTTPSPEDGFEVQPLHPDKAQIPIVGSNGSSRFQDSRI
The experiment in a line: ex vivo 3H-glycine uptake by peripheral blood cells of orally dosed mice vs free plasma concentration.

The target of assay [2] is T2, GLYT1 (Rattus norvegicus, UniProt P28572).
T2 construct: gene Slc6a9
T2 sequence (P28572 1-638): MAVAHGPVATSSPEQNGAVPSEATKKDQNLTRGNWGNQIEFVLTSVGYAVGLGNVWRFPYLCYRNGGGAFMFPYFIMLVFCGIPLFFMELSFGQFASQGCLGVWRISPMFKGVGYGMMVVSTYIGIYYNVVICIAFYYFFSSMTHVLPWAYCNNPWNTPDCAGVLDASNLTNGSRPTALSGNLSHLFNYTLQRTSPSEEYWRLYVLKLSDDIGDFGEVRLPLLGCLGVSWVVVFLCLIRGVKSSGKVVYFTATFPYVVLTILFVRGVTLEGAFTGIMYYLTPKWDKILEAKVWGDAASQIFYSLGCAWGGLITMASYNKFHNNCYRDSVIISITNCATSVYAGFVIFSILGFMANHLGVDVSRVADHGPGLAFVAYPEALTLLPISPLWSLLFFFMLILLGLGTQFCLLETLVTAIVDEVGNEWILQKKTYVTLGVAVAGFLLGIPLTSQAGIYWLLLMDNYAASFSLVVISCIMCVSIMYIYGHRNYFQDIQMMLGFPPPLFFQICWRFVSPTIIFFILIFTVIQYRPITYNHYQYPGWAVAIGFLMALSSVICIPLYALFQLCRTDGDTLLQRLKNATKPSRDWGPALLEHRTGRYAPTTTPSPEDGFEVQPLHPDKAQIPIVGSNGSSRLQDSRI
As to the kind of experiment: ex vivo 3H-glycine uptake by peripheral blood cells of orally dosed rats vs free plasma concentration.

In the case of `C[C@H](Oc1ccc(S(C)(=O)=O)cc1C(=O)N1CCN(c2ncc(C(F)(F)F)cc2F)CC1)C(F)(F)F` [bitopertin, [4-(3-fluoro-5-trifluoromethylpyridin-2-yl)piperazin-1-yl][5-methanesulfonyl-2-((S)-2,2,2-trifluoro-1-methylethoxy)phenyl]methanone], the values for the EC50 at GLYT1 [1] and on GLYT1 [2] were 1.2 nM and 2 nM, respectively.
